Assay results from PubChem BioAssay (NCI).
Values joined by “and” are separate entries in the source; they are usually repeats but may differ in a detail not shown here. Identical values can stand only once.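 The compound was tested at five concentrations on cells cultured in 96-well plates, with a 48-hour exposure period. The concentration for 50% growth inhibition is given as GI50. The concentration for full growth arrest is given as TGI.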

How the values were obtained:
Assay in all cases: NCI-60 cell line screen, 48 h
[1] = tested on: NCI-H23 lung
[2] = tested on: PC-3 prostate
[3] = tested on: SK-MEL-28 melanoma
[4] = tested on: K-562 leukemia
[5] = tested on: M14 melanoma
[6] = tested on: MDA-MB-231 breast
[7] = tested on: OVCAR-4 ovarian
[8] = tested on: HOP-62 NSCLC
[9] = tested on: ACHN renal
[10] = tested on: HS 578T breast

Structure (SMILES) | GI50 [1] [µM] | TGI [1] | GI50 [2] [µM] | TGI [2] [µM] | GI50 [3] [µM] | TGI [3] | GI50 [4] [µM] | TGI [4] | GI50 [5] [µM] | TGI [5] | GI50 [6] [µM] | TGI [6] [µM] | GI50 [7] [µM] | TGI [7] | GI50 [8] [µM] | TGI [8] | GI50 [9] [µM] | TGI [9] [µM] | GI50 [10] [µM] | TGI [10] [µM]
COc1cc2c(cc1NC(=O)C(Cl)Cl)-c1ccc(NC(=O)C(Cl)Cl)cc1C2 | 2.52 | 12.5 µM | 0.606 | 1.76 | 0.611 | 1.76 µM | 0.438 | 3.64 µM | 3.14 | 16.5 µM | 0.499 | 2 | 1.04 | 5.56 µM | 0.587 | 1.64 µM | 0.268 | 0.971 | 0.953 | > 34.7
COC1=C(OC)[C@]2(OC)c3c(O)c(OC)c4c(c3O[C@@]23O[C@@H](c2ccccc2)CC=C3C1=O)[C@@H](OC)C[C@H](c1ccccc1)O4 | 0.277 | 1.01 µM | 0.706 | 1.84 | 0.591 | 1.49 µM | 0.0676 | 0.333 µM | 0.516 | 1.86 µM | 0.445 | 1.7 | 0.667 | 2.15 µM | 2.33 | 5.61 µM | 0.605 | 1.81 | 0.896 | 3.66
C[C@@H](NC(=O)c1ccc(F)cc1)c1ccc2c(c1)CCN2C(=O)C1CCOCC1 | > 100 | > 100 µM | > 100 | > 100 | > 100 | > 100 µM | > 100 | > 100 µM | > 100 | > 100 µM | > 100 | > 100 | > 100 | > 100 µM | > 100 | > 100 µM | > 100 | > 100 | > 100 | > 100
CC1CCC2C(CN(CC3=C(C(F)(F)F)OC4OC5(C)CCC6C(C)CCC3C46OO5)CC3=C(C(F)(F)F)OC4OC5(C)CCC6C(C)CCC3C46OO5)=C(C(F)(F)F)OC3OC4(C)CCC1C32OO4 (stereo unspecified) | 6.04 | 19.7 µM | 3.99 | 20.1 | 30.1 | > 100 µM | 5.58 | 22.1 µM | 22.2 | 59.7 µM | 13.4 | 36.6 | 10.2 | 33.4 µM | 28.3 | 71.9 µM | 1.81 | 3.49 | 17.9 | 61.4
Cc1cc2c(c(=O)o1)C1=S(SC(c3ccccc3)=C1)S2 (stereo unspecified) | – | > 100 µM | – | 65.1 | – | > 100 µM | – | > 100 µM | – | > 100 µM | – | > 100 | – | > 100 µM | – | 45.5 µM | – | > 100 | – | 96
C=C1C(=O)O[C@H]2[C@H]1CC/C(COC(=O)NCc1c[nH]c3ccc(F)cc13)=C\CC[C@@]1(C)O[C@@H]21 | 1.83 | 3.89 µM | 1.48 | 3.05 | 1.63 | 3.24 µM | 0.291 | 1.86 µM | 1.23 | 2.73 µM | 1.63 | 3.16 | 1.52 | 3.59 µM | 2 | 4.56 µM | 1.36 | 2.67 | 3.36 | 26.6
C/C(=N\NC(=S)N1CCN(c2ccccn2)CC1)c1ncccn1 | < 0.016 | 4.81 µM and 19.3 µM | 0.0298 | 15.9 | 0.566 | 7.1 µM and 14.1 µM | – | 1.35 µM and 4.46 µM | 0.0938 | 6.06 µM and 2.61 µM | – | 19.4 | 2.44 | 4.26 µM and 21.2 µM | 0.0865 | 2.09 µM and 7.05 µM | 0.0871 | 12.1 | 3.01 | 31.2
CC(C)N(Cc1ccc(F)cc1)c1ccc(CO)c(Cl)c1 | 3.31 | 21.8 µM | 11.4 | 24.2 | 14 | 27.2 µM | 0.468 | 12.9 µM | 13 | 28.8 µM | 12.4 | 25.6 | 0.116 | 1.7 µM | 1.14 | 17.6 µM | 8.08 | 20.9 | 14.8 | 37.8
O=S(=O)(NCCCNc1nccc(-c2c(-c3ccc(F)cc3)nc3sccn23)n1)c1ccc(F)cc1 | 17.8 | > 100 µM | 9.54 | > 100 | 20.3 | > 100 µM | 4.62 | > 100 µM | 7.06 | > 100 µM | 14.2 | > 100 | 3.53 | 26.7 µM | 24.8 | > 100 µM | 4.61 | > 100 | 9.66 | > 100
CN(C)c1nc(N)c(C#N)c(C#N)c1C#N | – | > 10 µM | – | > 10 | – | > 10 µM | – | > 7.15 µM | – | > 10 µM | – | > 10 | – | > 10 µM | – | > 10 µM | – | > 10 | – | > 10
Clc1ccc([I+]c2ccc(Cl)cc2Cl)c(Cl)c1 | 2.13 | 4.83 µM | 1.94 | 4.72 | 7.14 | 21.1 µM | 2.03 | 5.1 µM | 2.58 | 6.07 µM | 2.04 | 4.42 | 1.95 | 4.52 µM | 2.27 | 4.91 µM | 1.89 | 3.77 | 2.48 | 8.81
CN(C)CCCn1c2c(c3cc4c(cc3c1=O)OCO4)C(=O)c1ccccc1-2 | 0.231 | – | 0.365 | 3.59 | 4.68 | > 100 µM | 0.0793 | – | 0.0984 | 1.38 µM | 0.465 | 4.29 | 0.715 | > 23.3 µM | < 0.0318 | 1.43 µM | < 0.0213 | 0.234 | 11.5 | 43.4
CN1CCCC1c1cccnc1.O=C(O)c1ccccc1O.O=C([O-])c1ccccc1[OH2+].O=C([O-])c1ccccc1[OH2+].[Mn+2] (stereo unspecified) | > 100 | > 100 µM | 58.1 | > 100 | > 100 | > 100 µM | > 100 | > 100 µM | > 100 | > 100 µM | > 100 | > 100 | > 100 | > 100 µM | > 100 | > 100 µM | > 100 | > 100 | > 100 | > 100
